In US20100243432A1, “HUMIDIFIER” (priority 2007, published 2010):

Assay: solubility of AgCl calculated from solubility product
Type: physicochemical
Settings: in water
Description: As described above, it can be seen that when the silver ions are eluted through the electrolysis, the sterilization can be more efficiently conducted than when the silver ions are eluted through other methods.

dissolvable AgCl, as a concentration of the silver ions: approximately 1.5 mg/L
Compound: [Cl][Ag] [AgCl, silver chloride]
